Data as given in publication PMC9966845, “Targeting Siderophore-Mediated Iron Uptake in M. abscessus: A New Strategy to Limit the Virulence of Non-Tuberculous Mycobacteria” (Pharmaceutics, 2023).
Read-outs that look alike come from different tables or passages of the source.

Experiments:
[1] = test system: Mab; test: MIC evaluation by resazurin assay in iron-limiting conditions; assay type: cell-based, M. abscessus; settings: Mycobacteroides abscessus, chelated Sauton's medium, highest concentration tested 500 μM, read-out: antimycobacterial activity (MIC)
Method: Exponentially growing primary cultures were diluted 1:10 in iron-depleted Sauton’s medium enriched with 10% OACD. The secondary Mab culture growing in iron-limiting conditions was then diluted to OD600 0.005 using iron-depleted Sauton’s medium. Each well of the 96-well plate was filled with 100 μL of the diluted cell suspension. For each plate, the first four wells of the first row were filled with the cellular suspension and no drug was added (negative control). The following four wells were filled with the cellular suspension and treated with the vehicle volume. The last four wells of the first row were filled with the cellular suspension and treated with 1 mg/mL Streptomycin (positive control). Only the first well of the other rows was filled with 200 μL of cell suspension. In this well, the highest concentration of compound 1 (500 µM) was added and then two-fold serially diluted. After 24 h of incubation at 37 °C, 10 μL/well of 0.01% resazurin was added. The plate was re-incubated at 37 °C for 24 h and then read out. Pink wells indicated bacterial viability, whereas wells with an unchanged blue color indicated cidality. The MIC was counted as the lowest compound concentration causing cidality.

[2] = biological target: T1, Mab-SaS (Mycobacteroides abscessus, UniProt B1MAQ5); test: Mab-SaS inhibition, fluorimetric enzymatic assay; assay type: biochemical, M. abscessus; settings: for remaining activity at 100 µM: 100 μM ligand concentration, read-out: %RA (residual enzymatic activity)
T1 sequence (B1MAQ5 entry or part of it): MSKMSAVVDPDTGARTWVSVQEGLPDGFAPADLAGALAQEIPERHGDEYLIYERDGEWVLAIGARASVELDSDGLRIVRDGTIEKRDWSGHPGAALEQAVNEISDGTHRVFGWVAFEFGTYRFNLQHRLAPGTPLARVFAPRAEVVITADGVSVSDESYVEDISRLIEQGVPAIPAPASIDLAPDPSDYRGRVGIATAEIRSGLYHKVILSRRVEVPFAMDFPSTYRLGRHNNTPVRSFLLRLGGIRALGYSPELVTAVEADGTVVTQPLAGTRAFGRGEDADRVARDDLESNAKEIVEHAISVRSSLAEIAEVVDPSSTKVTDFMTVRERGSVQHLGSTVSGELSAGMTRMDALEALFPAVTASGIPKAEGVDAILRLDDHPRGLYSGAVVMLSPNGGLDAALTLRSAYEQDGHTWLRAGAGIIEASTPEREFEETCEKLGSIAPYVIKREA
Method: The selected furan-based compounds were screened against Mab-SaS enzymatic activity at 100 µM (dissolved in a solution containing 10% DMSO). Assays were performed at subsaturating concentrations of chorismic acid (50 μM), as above. For the most promising compounds, the IC50 value was also determined.
To further verify the reliability of the inhibition results against Mab-SaS, we determined the IC50 of compound 1 in the presence of 0.1 mg/mL bovine serum albumin (BSA) or in the presence of 0.01% (v/v) Triton X-100 as a detergent. Moreover, to exclude an unspecific binding to cysteine residues, we also tested the IC50 with 100 μM of 1,4-dithio-DL-threitol (DTT).

[3] = test system: M. bovis BCG; settings: cited from earlier work
[4] = biological target: T1, Mab-SaS; test: Grating-Coupled Interferometry (GCI) binding analysis; design: species or system M. abscessus; settings: 25 °C, 1:1 kinetic model
Method: The binding affinity and ligand efficiency of the furan-based library was evaluated by Grating-Coupled Interferometry (GCI). The analyses were performed by the Creoptix WAVE system (Malvern Panalytical, Malvern, UK). Borate buffer (100 mM sodium borate pH 9.0, 1 M NaCl) was used for chip conditioning. Experiments were carried out by reversibly capturing His-tagged Mab-SaS (50 μg/mL in running buffer, i.e., PBS, 0.05% Tween 20, 0.5% DMSO) on 4PCP-NTA WAVE chips, according to the manufacturer’s instructions, at a density of 3000 pg/mm^2.
Regeneration-free injections of a 1:2 dilution series in the 500–3 μM range for each compound of the furan-based library in running buffer were performed at 25 °C, using a flow rate of 100 μL/min.
A dimethyl sulfoxide (DMSO) calibration curve was used for bulk correction, and blank injections for double referencing. Data were analyzed and corrected using the Creoptix WAVE control software (correction applied: X and Y offset; DMSO calibration; double referencing). The processed data were fitted using the “1:1” kinetic model of the WAVE control software. All the experiments were performed in triplicate. Descriptive Statistical Analysis, as implemented in Microsoft Office Excel 10 (Microsoft Corporation, Redmond, WA, USA), was employed to calculate the mean of the obtained values of kon, koff, and KD as a measure of central tendency; standard deviations of the former values were computed as a measure of dispersion.

[5] = test system: C=C(O[C@@H]1C=C(C(=O)O)C=C[C@H]1O)C(=O)O; test: purified protein, by the assay type; settings: other: substrate of Mab-SaS, 37 °C, pH 7.5
[6] = no additive, 50 μM chorismic acid, read-out: IC50

| Compound | MIC [1] | IC50 ([2]; 100 μM DTT in the reaction mixture, read-out: IC50 in the presence of DTT) | inhibition at 100 µM ([2]; 100 μM compound) | remaining activity at 100 µM ([2]; 50 μM chorismic acid) | IC50 ([2]; 0.1 mg/mL bovine serum albumin (PAIN analysis), read-out: IC50 in the presence of BSA) | IC50 ([2]; 0.01% (v/v) Triton X-100 (PAIN analysis), read-out: IC50 in the presence of Triton X-100) | IC50 [2, 6] | antimycobacterial activity on M. bovis BCG [3] | Kd [4] | koff [4] | kon [4] | Km [5] |
| --- | --- | --- | --- | --- | --- | --- | --- | --- | --- | --- | --- | --- |
| O=C(O)c1ccc(-c2ccc(C(F)(F)F)cc2C(F)(F)F)o1 [Compound 1, 5-(2,4-bis(trifluoromethyl)phenyl)furan-2-carboxylic acid] | > 500 µM | 6.1 ± 1.42 µM | 98.8% | 1.2 ± 2.8% | 5.2 ± 0.68 µM | 6.5 ± 0.56 µM | 5.3 ± 1.5 µM | 500 µM | 6.11 ± 0.16 µM | 9.77e-05 s⁻¹ | 15.4 ± 5 M⁻¹ s⁻¹ |  |
| Nc1cc([N+](=O)[O-])ccc1-c1ccc(C(=O)O)o1 [Compound 2, 5-(2-amino-4-nitrophenyl)furan-2-carboxylic acid] |  |  |  | 2.3 ± 0.7% |  |  | 23.6 ± 1.8 µM |  | 12.7 ± 3.32 µM | 0.00303 s⁻¹ | 244 ± 6200 M⁻¹ s⁻¹ |  |
| O=C(O)c1ccc(-c2cc(C(F)(F)F)cc(C(F)(F)F)c2)o1 [Compound 3, 5-(3,5-bis(trifluoromethyl)phenyl)furan-2-carboxylic acid] |  |  |  | 15.6 ± 2.5% |  |  | 29.5 ± 1.6 µM |  | 67.5 ± 9.51 µM | 0.00675 ± 6.1e-07 s⁻¹ | 100 ± 500 M⁻¹ s⁻¹ |  |
| Mab-SaS (Mycobacteroides abscessus ATCC 19977) |  |  |  |  |  |  |  |  |  |  |  | 58 µM |
